According to ChEMBL document CHEMBL1151619, “Structure and conformation of two new dolabellane-based diterpenes from Dictyota sp” (J Nat Prod, 1984):
Activity calls are given as the source filed them. The rule behind the calls is not given here.

Test system: KB
Assay: Cytotoxicity against human KB cells
Format: functional, cell-based

Question: With C=C(C)[C@@H]1CC[C@]2(C)C[C@H](OC(C)=O)/C(CO)=C/CC/C(C)=C/C[C@@H]12 as the compound, how does the Activity read?
Answer: The Activity was “Active”.
